From patent publication US20240343704A1, “HALO-SUBSTITUTED AMINO PYRIDINE COMPOUNDS AS INHIBITORS OF THE HAEMATOPOIETIC PROGENITOR KINASE 1 (HPK1)” (priority 2021, published 2024)
Counter-ions that a name gives are not always drawn.

How the values were obtained:
Lck (h) = Lck (h) (Homo sapiens, UniProt P06239); assay: Lck Human  Kinase Enzymatic Radiometric Assay; type: biochemical; conditions: read-out: Lck IC50 nM Range*
In short: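 Substrate 33P-incorporation measured by scintillation counting after spotting on P30 filtermat and phosphoric acid washes. Human Lck reacted 40 min at RT in 50 mM Tris pH 7.5 with 10 mM MgAcetate, [gamma-33P]-ATP, 250 uM Cdc2 peptide, 0.1 mM EGTA and 0.1 mM Na3VO4.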

[1] = target: T1, Recombinant (1-346) HPK1 (h) (Homo sapiens, UniProt Q92918); assay: HPK1 Human STE Kinase Enzymatic Radiometric Assay; type: biochemical; conditions: read-out: HPK1 IC50 nM Range*
T1 construct: Recombinant (1-346) HPK1 (h) is incubated with 8 mM MOPS pH 7.0
T1 sequence (Q92918 1-346): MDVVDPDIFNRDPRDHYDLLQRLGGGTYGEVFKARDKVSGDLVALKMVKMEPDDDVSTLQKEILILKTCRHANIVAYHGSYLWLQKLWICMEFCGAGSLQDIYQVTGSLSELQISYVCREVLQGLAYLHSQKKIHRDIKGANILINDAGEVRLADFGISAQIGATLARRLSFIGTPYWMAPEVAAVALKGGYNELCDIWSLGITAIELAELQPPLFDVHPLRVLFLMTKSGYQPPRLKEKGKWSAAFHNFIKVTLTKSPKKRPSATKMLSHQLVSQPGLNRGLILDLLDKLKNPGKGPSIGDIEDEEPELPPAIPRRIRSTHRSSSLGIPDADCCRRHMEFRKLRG
Procedure: A stock solution of 10 mM of test compound is prepared in DMSO. The compound plate was prepared by 3-fold and 9-point serial dilutions. […] The reaction is initiated by The addition of the Mg/ATP mix. After incubation for 40 minutes at RT, the reaction is stopped by the addition of phosphoric acid to a concentration of 0.5%.

Chain of Lck (h) (P06239 whole entry): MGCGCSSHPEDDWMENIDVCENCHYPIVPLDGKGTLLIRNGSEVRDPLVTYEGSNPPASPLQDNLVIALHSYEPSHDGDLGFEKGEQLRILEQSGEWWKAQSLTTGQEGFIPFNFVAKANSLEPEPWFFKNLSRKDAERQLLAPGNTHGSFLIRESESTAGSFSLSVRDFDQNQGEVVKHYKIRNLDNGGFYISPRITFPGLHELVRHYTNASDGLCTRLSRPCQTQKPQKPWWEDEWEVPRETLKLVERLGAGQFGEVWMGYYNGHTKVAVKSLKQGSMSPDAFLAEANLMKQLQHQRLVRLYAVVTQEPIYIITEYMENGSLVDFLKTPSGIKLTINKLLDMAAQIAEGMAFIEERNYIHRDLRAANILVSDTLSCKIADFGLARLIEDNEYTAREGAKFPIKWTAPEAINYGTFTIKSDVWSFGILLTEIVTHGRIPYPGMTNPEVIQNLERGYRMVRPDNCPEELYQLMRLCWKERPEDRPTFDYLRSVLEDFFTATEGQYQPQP

Row | IC50 (Lck (h)) [nM] | IC50 [1] [nM] | SMILES
1 | > 1000 | 0.1 to 10 | CC(=O)N1CCC(Oc2ccc(-c3cc(-c4ccc5c(c4)CCNC5=O)c(N)nc3F)c3c2OCO3)CC1 [I-306, 6-(5-(7-((1-acetylpiperidin-4-yl)oxy)benzo[d][1,3]dioxol-4-yl)-2-amino-6-fluoropyridin-3-yl)-3,4-dihydroisoquinolin-1(2H)-one]
2 | > 1000 | 0.1 to 10 | Nc1nc(F)c(-c2ccc(N3CCN(CC4CC4)CC3)cc2)cc1-c1cc(F)c2c(c1)CCNC2=O [I-307, 6-(2-amino-5-(4-(4-(cyclopropylmethyl)piperazin-1-yl)phenyl)-6-fluoropyridin-3-yl)-8-fluoro-3,4-dihydroisoquinolin-1(2H)-one]
3 | > 1000 | 0.1 to 10 | Nc1nc(F)c(-c2ccc(C3CCN(CC4CC4)CC3)cc2)cc1-c1cc(F)c2c(c1)CCNC2=O [I-308, 6-(2-amino-5-(4-(1-(cyclopropylmethyl)piperidin-4-yl)phenyl)-6-fluoropyridin-3-yl)-8-fluoro-3,4-dihydroisoquinolin-1(2H)-one]
4 | > 1000 | 0.1 to 10 | Nc1nc(F)c(-c2ccc(N3CCOCC3)cc2)cc1-c1cc(F)c2c(c1)CCNC2=O [I-309, 6-(2-amino-6-fluoro-5-(4-morpholinophenyl)pyridin-3-yl)-8-fluoro-3,4-dihydroisoquinolin-1(2H)-one]
5 | > 1000 | 11 to 100 | CC(C)N1CCN(c2ccc(-c3cc(-c4ccc5c(c4)CC(CN(C)C)NC5=O)c(N)nc3F)cc2)CC1 (stereo not drawn) [I-310, 6-(2-amino-6-fluoro-5-(4-(4-isopropylpiperazin-1-yl)phenyl)pyridin-3-yl)-3-((dimethylamino)methyl)-3,4-dihydroisoquinolin-1(2H)-one]
6 | > 1000 | 11 to 100 | CN(C)CC1Cc2cc(-c3cc(-c4ccc(N5CCOCC5)cc4)c(F)nc3N)ccc2C(=O)N1 (stereo not drawn) [I-311, 6-(2-amino-6-fluoro-5-(4-morpholinophenyl)pyridin-3-yl)-3-((dimethylamino)methyl)-3,4-dihydroisoquinolin-1(2H)-one]
7 | > 1000 | 101 to 1000 | CN(C)CC1Cc2cc(-c3cc(-c4ccc(Cl)cc4)c(F)nc3N)ccc2C(=O)N1 (stereo not drawn) [I-312, 6-(2-amino-5-(4-chlorophenyl)-6-fluoropyridin-3-yl)-3-((dimethylamino)methyl)-3,4-dihydroisoquinolin-1(2H)-one]
8 | > 1000 | 11 to 100 | Cc1cc(-c2cc(-c3cc4c(cc3F)C(=O)NCC4)c(N)nc2F)ccn1 [I-313, 6-(6-amino-2-fluoro-2′-methyl-[3,4′-bipyridin]-5-yl)-7-fluoro-3,4-dihydroisoquinolin-1(2H)-one]
9 | > 1000 | 101 to 1000 | Nc1nc(F)c(-c2ccnc(OCC3CC3)c2)cc1-c1cc2c(cc1F)C(=O)NCC2 [I-314, 6-(6-amino-2′-(cyclopropylmethoxy)-2-fluoro-[3,4′-bipyridin]-5-yl)-7-fluoro-3,4-dihydroisoquinolin-1(2H)-one]
10 | > 1000 | 101 to 1000 | Nc1nc(F)c(-c2cccc(OCC3CC3)c2)cc1-c1cc2c(cc1F)C(=O)NCC2 [I-315, 6-(2-amino-5-(3-(cyclopropylmethoxy)phenyl)-6-fluoropyridin-3-yl)-7-fluoro-3,4-dihydroisoquinolin-1(2H)-one]
11 | > 1000 | 11 to 100 | Nc1nc(F)c(-c2ccc(OCC3CC3)cc2)cc1-c1cc2c(cc1F)C(=O)NCC2 [I-316, 6-(2-amino-5-(4-(cyclopropylmethoxy)phenyl)-6-fluoropyridin-3-yl)-7-fluoro-3,4-dihydroisoquinolin-1(2H)-one]
12 | > 1000 | 0.1 to 10 | Nc1nc(F)c(-c2ccc(OC3CN(C(=O)CC4CC4)C3)cc2)cc1-c1ccc2c(c1)CCNC2=O [I-317, 6-(2-amino-5-(4-((1-(2-cyclopropylacetyl)azetidin-3-yl)oxy)phenyl)-6-fluoropyridin-3-yl)-3,4-dihydroisoquinolin-1(2H)-one]
13 | > 1000 | 11 to 100 | Nc1nc(F)c(-c2ccc(OC3CN(C4COC4)C3)cc2)cc1-c1ccc2c(c1)CCNC2=O [I-318, 6-(2-amino-6-fluoro-5-(4-((1-(oxetan-3-yl)azetidin-3-yl)oxy)phenyl)pyridin-3-yl)-3,4-dihydroisoquinolin-1(2H)-one]
14 | > 1000 | 0.1 to 10 | C[C@@H]1CN(c2ccc(-c3cc(-c4ccc5c(c4)CCNC5=O)c(N)nc3F)cc2)C[C@H](C)N1 [I-319, 6-(2-amino-5-(4-((3R,5S)-3,5-dimethylpiperazin-1-yl)phenyl)-6-fluoropyridin-3-yl)-3,4-dihydroisoquinolin-1(2H)-one]
15 | 101 to 1000 | 0.1 to 10 | Nc1nc(F)c(-c2ccc([C@]34C[C@H]3CN(CC3CC3)C4)cc2)cc1-c1cc(F)c2c(c1)CCNC2=O [I-320, 6-(2-amino-5-(4-((1S,5R)-3-(cyclopropylmethyl)-3-azabicyclo[3.1.0]hexan-1-yl)phenyl)-6-fluoropyridin-3-yl)-8-fluoro-3,4-dihydroisoquinolin-1(2H)-one formate]
16 | > 1000 | 0.1 to 10 | Nc1nc(F)c(-c2ccc(OC3CN(CC4CC4)C3)cc2)cc1-c1ccc2c(c1)CCNC2=O [I-321, 6-(2-amino-5-(4-((1-(cyclopropylmethyl)azetidin-3-yl)oxy)phenyl)-6-fluoropyridin-3-yl)-3,4-dihydroisoquinolin-1(2H)-one]
17 | > 1000 | 0.1 to 10 | Nc1nc(F)c(-c2ccc(OC3CCN(CC4CC4)CC3)cc2)cc1-c1ccc2c(c1)CCNC2=O [I-322, 6-(2-amino-5-(4-((1-(cyclopropylmethyl)piperidin-4-yl)oxy)phenyl)-6-fluoropyridin-3-yl)-3,4-dihydroisoquinolin-1(2H)-one]
18 | > 1000 | 0.1 to 10 | Nc1nc(F)c(-c2ccc(OC3CCN(C(=O)CC4CC4)CC3)cc2)cc1-c1cc2c(cc1F)C(=O)NCC2 [I-323, 6-(2-amino-5-(4-((1-(2-cyclopropylacetyl)piperidin-4-yl)oxy)phenyl)-6-fluoropyridin-3-yl)-7-fluoro-3,4-dihydroisoquinolin-1(2H)-one]
19 | > 1000 | 0.1 to 10 | Nc1nc(F)c(-c2ccc(OC3CCN(CC4CC4)CC3)cc2)cc1-c1cc2c(cc1F)C(=O)NCC2 [I-324, 6-(2-amino-5-(4-((1-(cyclopropylmethyl)piperidin-4-yl)oxy)phenyl)-6-fluoropyridin-3-yl)-7-fluoro-3,4-dihydroisoquinolin-1(2H)-one]
20 | > 1000 | 11 to 100 | Nc1nc(F)c(-c2ccc(OC3CCN(C4COC4)CC3)cc2)cc1-c1cc2c(cc1F)C(=O)NCC2 [I-325, 6-(2-amino-6-fluoro-5-(4-((1-(oxetan-3-yl)piperidin-4-yl)oxy)phenyl)pyridin-3-yl)-7-fluoro-3,4-dihydroisoquinolin-1(2H)-one]
21 | > 1000 | 0.1 to 10 | CC(=O)N1CC(Oc2ccc(-c3cc(-c4ccc5c(c4)CCNC5=O)c(N)nc3F)cc2)C1 [I-326, 6-(5-(4-((1-acetylazetidin-3-yl)oxy)phenyl)-2-amino-6-fluoropyridin-3-yl)-3,4-dihydroisoquinolin-1(2H)-one]
22 | > 1000 | 0.1 to 10 | CC(=O)N1CCC(Oc2ccc(-c3cc(-c4cc5c(cc4F)C(=O)NCC5)c(N)nc3F)cc2)CC1 [I-327, 6-(5-(4-((1-acetylpiperidin-4-yl)oxy)phenyl)-2-amino-6-fluoropyridin-3-yl)-7-fluoro-3,4-dihydroisoquinolin-1(2H)-one]
23 | > 1000 | 11 to 100 | CC(C)N1CCc2cc(-c3cc(-c4ccc5c(c4)CCNC5=O)c(N)nc3F)ccc2C1 [I-328, 6-(2-amino-6-fluoro-5-(2-isopropyl-1,2,3,4-tetrahydroisoquinolin-6-yl)pyridin-3-yl)-3,4-dihydroisoquinolin-1(2H)-one]
24 | > 1000 | 101 to 1000 | COCCN1CCN(Cc2cccc(-c3cc(-c4ccc5c(c4)CCNC5=O)c(N)nc3F)c2)CC1 [I-329, 6-(2-amino-6-fluoro-5-(3-((4-(2-methoxyethyl)piperazin-1-yl)methyl)phenyl)pyridin-3-yl)-3,4-dihydroisoquinolin-1(2H)-one]
25 | > 1000 | 11 to 100 | CC(C)N1CCN(Cc2cccc(-c3cc(-c4ccc5c(c4)CCNC5=O)c(N)nc3F)c2)CC1 [I-330, 6-(2-amino-6-fluoro-5-(3-((4-isopropylpiperazin-1-yl)methyl)phenyl)pyridin-3-yl)-3,4-dihydroisoquinolin-1(2H)-one]
26 | > 1000 | 101 to 1000 | CN1CCN(C(=O)c2cccc(-c3cc(-c4ccc5c(c4)CCNC5=O)c(N)nc3F)c2)CC1 [I-331, 6-(2-amino-6-fluoro-5-(3-(4-methylpiperazine-1-carbonyl)phenyl)pyridin-3-yl)-3,4-dihydroisoquinolin-1(2H)-one]
27 | > 1000 | 0.1 to 10 | CN1CCN(c2ccc(-c3cc(-c4ccc5c(c4)CCNC5=O)c(N)nc3F)cc2N)CC1 [I-332, 6-(2-amino-5-(3-amino-4-(4-methylpiperazin-1-yl)phenyl)-6-fluoropyridin-3-yl)-3,4-dihydroisoquinolin-1(2H)-one]
